This passage reports Selectivity and IC50 results from ChEMBL document CHEMBL1146833, “A novel series of potent and selective IKK2 inhibitors” (Bioorg Med Chem Lett, 2004).

pIC50: −log10 of the molar value. Where “and” joins values, the source holds several entries; their conditions need not be identical. Equal entries are not always repeated.

The species entered for one assay is Homo sapiens. The assay is described as follows: Selectivity for IKK2/IKK1.
Assay [1] addresses T1, Inhibitor of nuclear factor kappa-B kinase subunit beta (Homo sapiens, UniProt O14920).
T1 sequence (O14920 whole entry): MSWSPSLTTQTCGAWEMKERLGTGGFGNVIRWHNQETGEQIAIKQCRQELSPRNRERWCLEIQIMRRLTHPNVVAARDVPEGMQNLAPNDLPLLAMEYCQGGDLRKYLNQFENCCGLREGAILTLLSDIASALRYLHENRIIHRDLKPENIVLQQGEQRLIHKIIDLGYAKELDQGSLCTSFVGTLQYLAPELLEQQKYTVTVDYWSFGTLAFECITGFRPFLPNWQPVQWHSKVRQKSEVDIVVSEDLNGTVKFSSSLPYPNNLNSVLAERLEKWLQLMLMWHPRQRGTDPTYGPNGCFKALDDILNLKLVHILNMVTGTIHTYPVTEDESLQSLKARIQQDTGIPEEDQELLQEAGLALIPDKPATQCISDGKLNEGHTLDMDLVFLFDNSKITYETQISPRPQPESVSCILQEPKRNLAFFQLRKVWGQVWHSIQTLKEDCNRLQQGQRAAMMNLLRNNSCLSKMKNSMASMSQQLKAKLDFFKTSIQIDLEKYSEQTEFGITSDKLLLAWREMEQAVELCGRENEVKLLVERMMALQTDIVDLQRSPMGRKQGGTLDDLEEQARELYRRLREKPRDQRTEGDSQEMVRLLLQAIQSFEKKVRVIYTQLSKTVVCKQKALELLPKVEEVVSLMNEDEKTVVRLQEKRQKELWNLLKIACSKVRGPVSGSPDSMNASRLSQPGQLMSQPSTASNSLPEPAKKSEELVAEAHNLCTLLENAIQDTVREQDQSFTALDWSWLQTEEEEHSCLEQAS
As to the kind of experiment: Inhibitory activity against IKK2.

For assay [2], the target named is T2, Inhibitor of nuclear factor kappa-B kinase subunit alpha (Homo sapiens, UniProt O15111).
T2 sequence (O15111 whole entry): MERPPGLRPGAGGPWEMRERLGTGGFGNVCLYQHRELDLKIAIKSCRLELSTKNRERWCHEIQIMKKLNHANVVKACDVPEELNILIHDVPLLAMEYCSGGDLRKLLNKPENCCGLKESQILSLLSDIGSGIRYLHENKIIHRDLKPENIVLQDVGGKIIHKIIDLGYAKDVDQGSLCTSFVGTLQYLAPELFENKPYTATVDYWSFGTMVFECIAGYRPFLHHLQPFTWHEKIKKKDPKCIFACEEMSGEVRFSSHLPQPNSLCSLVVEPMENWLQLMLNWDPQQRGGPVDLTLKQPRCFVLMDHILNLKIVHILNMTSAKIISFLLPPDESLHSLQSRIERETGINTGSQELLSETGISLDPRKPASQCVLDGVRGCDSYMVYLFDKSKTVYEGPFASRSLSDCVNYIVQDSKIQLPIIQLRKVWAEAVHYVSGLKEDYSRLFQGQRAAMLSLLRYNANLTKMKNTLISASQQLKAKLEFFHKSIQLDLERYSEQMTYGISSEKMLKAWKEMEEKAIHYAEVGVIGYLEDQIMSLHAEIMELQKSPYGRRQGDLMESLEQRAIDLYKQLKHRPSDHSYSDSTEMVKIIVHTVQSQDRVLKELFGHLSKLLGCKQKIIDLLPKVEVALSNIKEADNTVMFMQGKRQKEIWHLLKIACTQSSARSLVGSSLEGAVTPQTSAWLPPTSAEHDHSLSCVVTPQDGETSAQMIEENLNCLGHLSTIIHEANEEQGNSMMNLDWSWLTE
As to the kind of experiment: Inhibitory activity against IKK1.

In general, pIC50 refers to the IC50 on a negative log10 scale, so that one unit is a factor of ten. In the assay filed under Homo sapiens, `NC(=O)c1c[nH]c2ccc(-c3ccc(Nc4nccc(-c5ccc(S(=O)(=O)N6CCNCC6)cc5)n4)cc3)cc12` had a Selectivity of 6. Also, in assay [1], the pIC50 is 6.26 and 6.84.

Compound `O=S(=O)(c1ccc(-c2ccnc(Nc3ccccc3)n2)cc1)N1CCNCC1` registered a Selectivity in the assay filed under Homo sapiens of 13. Also, the pIC50 in assay [1] was 7.04; in assay [2], 5.93.

Compound `CCCCc1ccc(Nc2nccc(-c3ccc(S(=O)(=O)N4CCNCC4)cc3)n2)cc1` gave a Selectivity in the assay listed under Homo sapiens of 9. The values for the pIC50 in assay [1] and in assay [2] were 6.51 and 5.57, respectively.

The compound `NC(=O)Nc1ccc(Nc2nccc(-c3ccc(S(=O)(=O)N4CCNCC4)cc3)n2)cc1` had a Selectivity in the assay listed under Homo sapiens of 10. For the same compound, the figures for the pIC50 in assay [1] and in assay [2] were 6.81 and 5.83, respectively.

With `O=[N+]([O-])c1ccc(Nc2nccc(-c3ccc(S(=O)(=O)N4CCNCC4)cc3)n2)cc1`, in the assay filed under Homo sapiens, the Selectivity was determined as 105. Further, the results for the pIC50 in assay [1] and in assay [2] were 7.18 and 5.16, respectively.

`CC(=O)c1cc2cc(-c3ccc(Nc4nccc(-c5ccc(S(=O)(=O)N6CCNCC6)cc5)n4)cc3)ccc2o1`: in the assay listed under Homo sapiens, the Selectivity came to 65. Further, the pIC50 in assay [1] was 7.59; in assay [2] it was 5.77.

For `C[S+]([O-])c1ccc(Nc2nccc(-c3ccc(S(=O)(=O)N4CCNCC4)cc3)n2)cc1` (stereo unspecified), the Selectivity in the assay filed under Homo sapiens turned out to be 26. Besides, the values for the pIC50 in assay [1] and in assay [2] were 7.04 and 5.63, respectively.

Take `O=S(=O)(c1ccc(-c2ccnc(Nc3cc(F)cc(F)c3)n2)cc1)N1CCNCC1`: the results for the pIC50 in assay [1] and in assay [2] were 6.93 and 5.39, respectively.

`O=S(=O)(c1ccc(-c2ccnc(Nc3ccc(C(F)(F)F)cc3)n2)cc1)N1CCNCC1` registered a Selectivity in the assay listed under Homo sapiens of 8. Further, the negative logarithm of the IC50 (pIC50) is 6.29 in assay [1] and 5.40 in assay [2].

As for `N#Cc1cccc(Nc2nccc(-c3ccc(S(=O)(=O)N4CCNCC4)cc3)n2)c1`, in the assay listed under Homo sapiens, the Selectivity worked out at 62. Moreover, the figures for the pIC50 in assay [1] and in assay [2] were 7.08 and 5.29, respectively.

Compound `NS(=O)(=O)c1ccc(Nc2nccc(-c3ccc(S(=O)(=O)N4CCNCC4)cc3)n2)cc1` returned a Selectivity in the assay filed under Homo sapiens of 21. Besides, the pIC50 in assay [1] is 7.96; in assay [2], 6.61.

Take `Cc1ccc(Nc2nccc(-c3ccc(S(=O)(=O)N4CCNCC4)cc3)n2)cc1`: the pIC50 in assay [1] was 6.57; in assay [2], 5.68.

`COc1cc(Nc2nccc(-c3ccc(S(=O)(=O)N4CCNCC4)cc3)n2)cc(OC)c1OC` returned a Selectivity in the assay listed under Homo sapiens of 1. Besides, the pIC50 in assay [1] was 6.84; in assay [2] it was 6.81.

Take `COc1ccc(Nc2nccc(-c3ccc(S(=O)(=O)N4CCNCC4)cc3)n2)cc1`: the negative-log IC50 (pIC50) is 6.67 in assay [1] and 5.91 in assay [2].

Regarding `NC(=O)c1ccc(Nc2nccc(-c3ccc(S(=O)(=O)N4CCNCC4)cc3)n2)cc1`, in the assay filed under Homo sapiens, the Selectivity amounted to 83. Also, the values for the pIC50 in assay [1] and in assay [2] were 7.32 and 5.40, respectively.
